Measured values published in US8349804B2, “Bone graft and scaffolding materials immobilized with type I collagen binding peptides” (Seoul National University Industry Foundation, priority 2006, dated 2013).

What was measured:
[1] = tested on: Human-osteocarcoma cells (KCLB No. 21543); test: Test of cell adhesion on peptide-immobilized bone graft material; assay type: cell-based; conditions: phalloidin staining, confocal laser scanning microscope
Procedure: […] The bone graft materials with the cultured human-osteocarcoma cell were fixed with 2% glutaraldehyde solution. The fixed bone graft materials were treated with 1% triton X-100 and then added with a fluorescent-labeled phalloidin solution, thus staining the attached cytoplasm.

ERK = test: Western blot of phosphorylated ERK (pERK); assay type: cell-based, human; conditions: C2C12 cells treated with peptides for 30 min; compared with non-treated cells (NT)
Procedure: In order to examine the expression of differentiation marker protein in osteoblasts cultured on the surface of the bone graft material on which peptides added with cysteine at each N-terminal end of amino acid sequences of SEQ ID NOs: 1, 2 and 3, prepared in example 2 according to the present invention were immobilized, the peptides were exposed to human mesenchymally derived stem cells (C2C12) for 30 min, and collected to measure the amount of ERK protein, a marker proteins involved in intracellular signal transfer, by Western blot.
The human mesenchymally derived stem cells were transplanted to 60 mm of petridish, treated with peptides for 30 min. Whole intracellular protein was extracted and quantitated by Bradford method. 40[…] of protein was electrophoresed on acrylamide gel and transferred to nitrocellulose membrane, and ERK, intracellular signal transmission protein within cell was reacted with the antibody of phosphorylated ERK (pERK), followed by reacting with the second antibody labeled with a marker. The membrane was developed to observe the protein bands and measure densities thereof (FIG. 4).

[2] = Test of calcification (calcein staining, confocal microscopy); assay type: cell-based, human; conditions: cultured 14 days in medium for forming hard tissue; compared with group without peptides
Procedure: The bone graft materials prepared in Examples 2 was added to a medium for forming a hard tissue containing calcein (fluorescent marker of calcium), and human mesenchymally derived stem cells (C2Cl2: ATCC CRL-1772) were cultured for 14 days. The cultured osteoblasts werefixed with 2% glutaraldehyde solution and treated with 1% triton X-100 and then added with a fluorescent-labeled phalloidin solution, thus staining the fixed cytoplasm.

type I collagen = test: Affinity of peptide to type I collagen by Biacore X; assay type: binding; conditions: type I collagen bound to CM5 chip, peptide dissolved to be 4 μmol, ranking among SEQ ID NO: 1-3
Excerpt: The synthesized peptide's affinity to type I collagen was examined using Biacore X (Biacore Co., Sweden). After the type I collagen was bound to CM5 chip, the amount of peptides binding with collagen was quantitated while flowing the prepared peptide dissolved to be 4 μmol into micro-channels of Biacore X (FIG. 1).

Chain of type I collagen (P02452 162-1218 limits assumed): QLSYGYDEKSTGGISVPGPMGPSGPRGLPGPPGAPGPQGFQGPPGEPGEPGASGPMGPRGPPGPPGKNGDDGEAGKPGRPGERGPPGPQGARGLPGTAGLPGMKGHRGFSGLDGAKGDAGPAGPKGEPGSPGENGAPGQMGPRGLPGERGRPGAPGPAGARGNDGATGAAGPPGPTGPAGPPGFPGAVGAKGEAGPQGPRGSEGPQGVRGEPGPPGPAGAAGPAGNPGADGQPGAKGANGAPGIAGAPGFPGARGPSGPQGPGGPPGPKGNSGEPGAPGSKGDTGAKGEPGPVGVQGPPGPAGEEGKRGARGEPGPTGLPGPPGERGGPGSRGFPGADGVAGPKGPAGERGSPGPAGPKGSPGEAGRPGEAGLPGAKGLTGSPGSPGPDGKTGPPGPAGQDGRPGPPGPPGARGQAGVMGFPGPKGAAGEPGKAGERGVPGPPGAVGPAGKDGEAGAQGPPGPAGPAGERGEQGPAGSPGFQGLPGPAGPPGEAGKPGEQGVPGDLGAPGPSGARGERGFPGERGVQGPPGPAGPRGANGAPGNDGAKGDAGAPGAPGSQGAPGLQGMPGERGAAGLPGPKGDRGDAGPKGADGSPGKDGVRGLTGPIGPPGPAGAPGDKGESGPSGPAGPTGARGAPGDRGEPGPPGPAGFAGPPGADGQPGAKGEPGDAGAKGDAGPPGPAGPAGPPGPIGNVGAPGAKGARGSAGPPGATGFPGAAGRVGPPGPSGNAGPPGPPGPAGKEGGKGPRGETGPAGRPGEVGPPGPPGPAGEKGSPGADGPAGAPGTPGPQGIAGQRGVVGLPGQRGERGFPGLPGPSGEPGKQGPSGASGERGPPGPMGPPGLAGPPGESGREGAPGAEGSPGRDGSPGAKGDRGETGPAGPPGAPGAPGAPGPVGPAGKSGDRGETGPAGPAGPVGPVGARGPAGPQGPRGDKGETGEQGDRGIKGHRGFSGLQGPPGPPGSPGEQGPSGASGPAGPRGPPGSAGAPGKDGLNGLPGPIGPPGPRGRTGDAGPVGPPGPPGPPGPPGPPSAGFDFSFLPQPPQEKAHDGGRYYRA
Chain of type I collagen (P08123 80-1119 limits assumed, further chain): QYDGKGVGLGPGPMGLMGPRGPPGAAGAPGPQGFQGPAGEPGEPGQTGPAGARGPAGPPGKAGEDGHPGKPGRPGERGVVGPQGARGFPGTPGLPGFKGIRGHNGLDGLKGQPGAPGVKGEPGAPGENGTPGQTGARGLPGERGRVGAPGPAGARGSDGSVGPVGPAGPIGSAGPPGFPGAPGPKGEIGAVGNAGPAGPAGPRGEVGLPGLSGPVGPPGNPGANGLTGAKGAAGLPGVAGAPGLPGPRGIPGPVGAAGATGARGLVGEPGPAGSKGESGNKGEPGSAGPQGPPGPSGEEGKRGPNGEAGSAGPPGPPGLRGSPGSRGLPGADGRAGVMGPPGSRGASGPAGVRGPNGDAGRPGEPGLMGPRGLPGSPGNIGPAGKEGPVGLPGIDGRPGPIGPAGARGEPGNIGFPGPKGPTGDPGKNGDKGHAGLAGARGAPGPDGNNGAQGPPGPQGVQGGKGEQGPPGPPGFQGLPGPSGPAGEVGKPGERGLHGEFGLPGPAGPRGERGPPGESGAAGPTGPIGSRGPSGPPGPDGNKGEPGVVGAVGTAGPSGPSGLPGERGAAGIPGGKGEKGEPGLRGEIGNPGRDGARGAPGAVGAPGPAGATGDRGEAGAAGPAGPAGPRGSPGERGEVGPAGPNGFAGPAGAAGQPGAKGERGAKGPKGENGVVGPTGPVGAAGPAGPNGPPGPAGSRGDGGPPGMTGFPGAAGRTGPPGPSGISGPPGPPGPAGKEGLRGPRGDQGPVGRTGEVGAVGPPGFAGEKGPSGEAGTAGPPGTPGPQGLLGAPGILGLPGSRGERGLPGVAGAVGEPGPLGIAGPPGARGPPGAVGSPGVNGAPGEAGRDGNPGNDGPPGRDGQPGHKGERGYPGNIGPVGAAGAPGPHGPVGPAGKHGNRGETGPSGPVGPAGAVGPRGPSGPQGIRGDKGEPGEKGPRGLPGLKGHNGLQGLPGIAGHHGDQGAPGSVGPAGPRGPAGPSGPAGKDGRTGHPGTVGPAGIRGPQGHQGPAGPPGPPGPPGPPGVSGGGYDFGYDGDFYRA

Substance	cell adhesion pattern on coated surface [1]	expression of phosphorylated ERK (pERK) (ERK)	calcium adhesion (calcein fluorescence), calcification of cells [2]	affinity to type I collagen (amount of peptide binding with collagen) (type I collagen)
Bovine serum albumin [BSA, reference compound]	spherical and unstable adhesion aspect of the cells	–	–	–
YRLKRSKS (listed as Oryctolagus cuniculus) [SEQ ID NO: 1]	stable adhesion of the cells	significantly increased	much more fluorescence	–
KMFHVSNAQYPGA (listed as Oryctolagus cuniculus) [SEQ ID NO: 2]	stable adhesion of the cells	significantly increased	much more fluorescence	lowest affinity
YRLKRSKSKMFHVSNAQYPGA (listed as Oryctolagus cuniculus) [SEQ ID NO: 3]	stable adhesion of the cells	significantly increased	much more fluorescence	highest affinity
